These results are taken from US12649733B2, “3,6-diamino-pyridazin-3-yl derivatives, pharmaceutical compositions containing them and their uses as pro-apoptotic agents” (LES LABORATOIRES SERVIER, priority 2019, dated 2026).

One test has as its target BCLXL (Homo sapiens, UniProt Q07817, V10N/V9A). Briefly: AlphaLISA assay (BIM peptide displacement). The test is classed as binding. Particulars: 20 pM protein, 1 nM peptide. Here is the method: AlphaLISA assay measures an increase in alpha signal upon binding biotinylated GST(1-218)-(FACTOR_XA)-hs ? (2-209)(SEQ ID:02—GST UniProtKB® primary accession number P08515 and BCLXL UniProtKB® primary accession number Q07817-1) coupled to a Streptavidin labeled Alpha donor bead to N-terminally labeled peptide derived from BIM (Fluorescein-betaAla-Ahx-SEQID:05, wherein SEQ ID:05 is […]) coupled to an Anti-FTIC AlphaLISA acceptor bead.
GST(1-218)(FACTOR_XA)-hs ? (2-209) was biotinylated in 50 mM phosphate buffer using a 20 fold excess of EZ Link NHS-LC-Biotin (thermoFisher catalogue number 21336) overnight at 4° C.
The addition of a compound which binds competitively to the same site as the peptide will result in an decrease in the Alpha signal of the available donor bead-protein-peptide-acceptor bead complex due to displacement of the peptide.
An 11-point serial dilution of each compound was prepared in DMSO, the final buffer conditions were 10 mM 4-(2-hydroxyethyl)-1-piperazineethanesulfonic acid [HEPES], 150 mM NaCl, 0.05% Tween 20, pH 7.4 and 4% DMSO. The final protein concentration in the assay was 20 pM with the peptide present at 1 nM). Alpha beads were used at a final concentration of 5 ug/mL. The experiments were incubated for overnight at 23° C. after acceptor bead addition. Finally the donor bead is added and incubated for 2 hours at 23° C. before Alpha signal measured on a Biotek Synergy2 plate reader (Excitation 680 nm, emission 615 nm).
(Alpha assays give light when donor and acceptor beads are brought close together.)

Another test has as its system H146 cells. Briefly: H146 cell viability, MTT assay. Format: cell-based. Particulars: Homo sapiens, NCI-H146, 48 h, 48 h exposure. Summed up:
(§1)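 Viability read by MTT reduction (OD 540 nm after overnight SDS/HCl lysis) after 48 h compound treatment of cells in RPMI 1640/10% FBS. Triplicates at nine concentrations, 3.16-fold apart; four-parameter curve fitting yields IC50.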
In general terms: Tetrazolium assays rely on reduction of a dye to a coloured formazan, in cell work by metabolically active cells.

For another test, the system named is MOLT-4 cells. Briefly: MOLT-4 cell viability, MTT assay. Format: cell-based. Particulars: Homo sapiens, MOLT-4, 48 h, 48 h exposure. Summed up:
as §1

BCLXL, sequence (Q07817 with tags, fused parts or gaps V9A/V10N): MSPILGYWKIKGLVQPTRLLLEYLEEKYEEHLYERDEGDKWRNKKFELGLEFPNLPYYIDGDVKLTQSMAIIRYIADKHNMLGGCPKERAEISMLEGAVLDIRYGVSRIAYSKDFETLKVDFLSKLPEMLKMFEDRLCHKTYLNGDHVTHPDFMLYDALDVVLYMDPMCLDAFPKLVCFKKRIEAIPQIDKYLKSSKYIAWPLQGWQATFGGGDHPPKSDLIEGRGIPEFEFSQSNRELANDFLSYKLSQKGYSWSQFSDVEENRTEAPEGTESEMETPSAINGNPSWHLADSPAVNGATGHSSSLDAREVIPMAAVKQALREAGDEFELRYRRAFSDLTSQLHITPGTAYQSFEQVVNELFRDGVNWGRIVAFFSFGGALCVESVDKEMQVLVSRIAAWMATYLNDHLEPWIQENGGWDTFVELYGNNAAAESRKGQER

What is called IC50 is the point on the concentration scale where inhibition reaches its midpoint. In the case of `Cc1cc(N(CCCCO)c2nc(C(=O)O)cs2)nnc1Nc1nc2ccccc2s1` [Example 110, 2-[[6-(1,3-Benzothiazol-2-ylamino)-5-methyl-pyridazin-3-yl]-(4-hydroxybutyl)amino]thiazole-4-carboxylic acid], the half-maximal inhibitory concentration (IC50) at BCLXL amounted to 0.48 nM.

For `COC(CO)CN(c1cc(C)c(Nc2nc3ccccc3s2)nn1)c1nc(C(=O)O)cs1` (stereo not drawn) [Example 111, 2-[[6-(1,3-Benzothiazol-2-ylamino)-5-methyl-pyridazin-3-yl]-(3-hydroxy-2-methoxy-propyl)amino]thiazole-4-carboxylic acid], the IC50 on BCLXL came out at 27 nM.

With `CNCC#Cc1ccc(OCCCc2sc(N(CCCC(CO)OC)c3cc(C)c(Nc4nc5ccccc5s4)nn3)nc2C(=O)O)c(F)c1` (stereo not drawn) [Example 112, 2-[[6-(1,3-Benzothiazol-2-ylamino)-5-methyl-pyridazin-3-yl]-(5-hydroxy-4-methoxy-pentyl)amino]-5-[3-[2-fluoro-4-[3-(methylamino)prop-1-ynyl]phenoxy]propyl]thiazole-4-carboxylic acid], the IC50 was 30.9 nM with H146 cells, 0.028 nM at BCLXL and 77.5 nM with MOLT-4 cells.

For `CNCC#Cc1ccc(OCCCc2sc(N(CCCC(O)CN3CCOCC3)c3cc(C)c(Nc4nc5ccccc5s4)nn3)nc2C(=O)O)c(F)c1` (stereo not drawn) [Example 113, 2-[[6-(1,3-Benzothiazol-2-ylamino)-5-methyl-pyridazin-3-yl]-(4-hydroxy-5-morpholino-pentyl)amino]-5-[3-[2-fluoro-4-[3-(methylamino)prop-1-ynyl]phenoxy]propyl]thiazole-4-carboxylic acid], the IC50 came out at 13 nM in the test on H146 cells, 0.028 nM on BCLXL and 25.7 nM in the test with MOLT-4 cells.

On to `CNCC#Cc1ccc(OCCCc2sc(N(CC(CO)N3CCOCC3)c3cc(C)c(Nc4nc5ccccc5s4)nn3)nc2C(=O)O)c(F)c1` (stereo not drawn) [Example 115, 2-[[6-(1,3-Benzothiazol-2-ylamino)-5-methyl-pyridazin-3-yl]-(3-hydroxy-2-morpholino-propyl)amino]-5-[3-[2-fluoro-4-[3-(methylamino)prop-1-ynyl]phenoxy]propyl]thiazole-4-carboxylic acid], for which the values for the IC50 in the test with H146 cells, on BCLXL and with MOLT-4 cells were greater than 150 nM, 0.089 nM and greater than 150 nM, respectively.

In the case of `Cc1ccc(S(=O)(=O)N(C)CC#Cc2ccc(OCCCc3sc(N(CCC(O)CO)c4cc(C)c(Nc5nc6ccccc6s5)nn4)nc3C(=O)O)c(F)c2)cc1` (stereo not drawn) [Example 120, 2-[[6-(1,3-Benzothiazol-2-ylamino)-5-methyl-pyridazin-3-yl]-(3,4-dihydroxybutyl)amino]-5-[3-[2-fluoro-4-[3-[methyl(p-tolylsulfonyl)amino]prop-1-ynyl]phenoxy]propyl]thiazole-4-carboxylic acid], the figures for the concentration for half-maximal inhibition (IC50) with H146 cells, at BCLXL and in the test on MOLT-4 cells were 280 nM, 0.099 nM and 557 nM, respectively.

For the molecule `COc1ccc(CN(C)CC#Cc2ccc(OCCCc3sc(N(CCC(O)CO)c4cc(C)c(Nc5nc6ccccc6s5)nn4)nc3C(=O)O)c(F)c2)cc1` (stereo not drawn) [Example 121, 2-[[6-(1,3-Benzothiazol-2-ylamino)-5-methyl-pyridazin-3-yl]-(3,4-dihydroxybutyl)amino]-5-[3-[2-fluoro-4-[3-[(4-methoxyphenyl)methyl-methyl-amino]prop-1-ynyl]phenoxy]propyl]thiazole-4-carboxylic acid], the IC50 at BCLXL came to 0.058 nM.

`Cc1cc(N(CCCCCO)c2nc(C(=O)O)cs2)nnc1Nc1nc2ccccc2s1` [Example 125, 2-[[6-(1,3-Benzothiazol-2-ylamino)-5-methyl-pyridazin-3-yl]-(5-hydroxypentyl)amino]thiazole-4-carboxylic acid]: the IC50 at BCLXL turned out to be 8.6 nM.

Take `Cc1cc(N(CCCO)c2nc(C(=O)O)c(CCCOc3ccc(C#CCN(C)C)cc3F)s2)nnc1Nc1nc2ccccc2s1` [Example 126, 2-[[6-(1,3-Benzothiazol-2-ylamino)-5-methyl-pyridazin-3-yl]-(3-hydroxypropyl)amino]-5-[3-[4-[3-(dimethylamino)prop-1-ynyl]-2-fluoro-phenoxy]propyl]thiazole-4-carboxylic acid]: the IC50 on BCLXL came to 0.023 nM.

In the case of `Cc1cc(N(CCCC(O)CN2CCOCC2)c2nc(C(=O)O)cs2)nnc1Nc1nc2ccccc2s1` (stereo not drawn) [Example 131, 2-[[6-(1,3-Benzothiazol-2-ylamino)-5-methyl-pyridazin-3-yl]-(4-hydroxy-5-morpholino-pentyl)amino]thiazole-4-carboxylic acid], the IC50 at BCLXL is 2.7 nM.

With `COCC(O)CCCN(c1cc(C)c(Nc2nc3ccccc3s2)nn1)c1nc(C(=O)O)cs1` (stereo not drawn) [Example 132, 2-[[6-(1,3-Benzothiazol-2-ylamino)-5-methyl-pyridazin-3-yl]-(4-hydroxy-5-methoxy-pentyl)amino]thiazole-4-carboxylic acid], the IC50 at BCLXL turned out to be 7.7 nM.

Consider `COC(CO)CCCN(c1cc(C)c(Nc2nc3ccccc3s2)nn1)c1nc(C(=O)O)cs1` (stereo not drawn) [Example 133, 2-[[6-(1,3-Benzothiazol-2-ylamino)-5-methyl-pyridazin-3-yl]-(5hydroxy-4-methoxy-pentyl)amino]thiazole-4-carboxylic acid], for which the IC50 at BCLXL worked out at 8.9 nM.

`Cc1cc(N(C)c2nc(C(=O)O)c(C3CN(C(=O)OC(C)(C)C)C3)s2)nnc1Nc1nc2ccccc2s1` [Example 135, 2-({6-[(1,3-Benzothiazol-2-yl)amino]-5-methylpyridazin-3-yl}(methyl)amino)-5-{1-[(tert-butoxy)carbonyl]azetidin-3-yl}-1,3-thiazole-4-carboxylic acid]: the IC50 with H146 cells amounted to 5290 nM; on BCLXL, 3.9 nM; with MOLT-4 cells it was 3240 nM.

As for `Cc1cc(N(C)c2nc(C(=O)O)c(C3CN(C(=O)c4ccccc4)C3)s2)nnc1Nc1nc2ccccc2s1` [Example 136, 5-(1-Benzoylazetidin-3-yl)-2-({6-[(1,3-benzothiazol-2-yl)amino]-5-methylpyridazin-3-yl}(methyl)amino]-1,3-thiazole-4-carboxylic acid], the 50% inhibitory concentration (IC50) at BCLXL was 7.7 nM.

For the molecule `Cc1cc(N(C)c2nc(C(=O)O)c(CC(C)(C)COc3ccc(C#CCN(C)C)cc3F)s2)nnc1Nc1nc2ccccc2s1` [Example 137, 2-({6-[(1,3-Benzothiazol-2-yl)amino]-5-methylpyridazin-3-yl}(methyl)amino)-5-(3-{4-[3-(dimethylamino)prop-1-yn-1-yl]-2-fluorophenoxy}-2,2-dimethylpropyl)-1,3-thiazole-4-carboxylic acid], the IC50 in the test with H146 cells came out at 320 nM; at BCLXL it was 0.27 nM; with MOLT-4 cells, 61.4 nM.

With `Cc1cc(N(CCCC(O)CN(C)C)c2nc(C(=O)O)cs2)nnc1Nc1nc2ccccc2s1` (stereo not drawn) [Example 143, 2-[[6-(1,3-Benzothiazol-2-ylamino)-5-methyl-pyridazin-3-yl]-[5-(dimethylamino)-4-hydroxy-pentyl]amino]thiazole-4-carboxylic acid], the IC50 on BCLXL is 22 nM.

Regarding `CC(=O)N1CC(c2sc(N(C)c3cc(C)c(Nc4nc5ccccc5s4)nn3)nc2C(=O)O)C1` [Example 152, 5-(1-Acetylazetidin-3-yl)-2-({6-[(1,3-benzothiazol-2-yl)amino]-5-methylpyridazin-3-yl}(methyl)amino)-1,3-thiazole-4-carboxylic acid], on BCLXL, the IC50 is 2.3 nM.

For the molecule `Cc1cc(N(C)c2nc(C(=O)O)c(C3CN(c4ccccc4)C3)s2)nnc1Nc1nc2ccccc2s1` [Example 153, 2-({6-[(1,3-Benzothiazol-2-yl)amino]-5-methylpyridazin-3-yl}(methyl)amino)-5-(1-phenylazetidin-3-yl)-1,3-thiazole-4-carboxylic acid], the IC50 on BCLXL came to 80 nM.
